# How the values were obtained:
# [1] = system: Vancomycin intermediate-resistant Staphylococcus aureus Mu50; experiment: In vitro infectivity assay (MIC), Exp. Ex. 2-1; format: cell-based; conditions: Staphylococcus aureus, VISA; Gram-positive; microdilution, MIC after 24 h; read-out: MIC VISA Mu50
# Description: (§1) The antibacterial activities were measured based on broth dilution techniques of international standards (Clinical Laboratory Standards Institute: CLSI). The activities were shown by minimum inhibitory concentrations (MICs) determined by inoculating the above-mentioned strains at a concentration of about 10^5 […] into Mueller-Hinton broth (manufactured by Difco) containing 0.85% NaCl in 96-well microplates and incubating the plates at 35° C. for 24 hours. Measurement was carried out three times.
# (§2) The antibacterial activities of the compounds of the present invention against various strains such as vancomycin-resistant enterococci (VRE), vancomycin intermediate-resistant Staphylococcus aureus (VISA), methicillin-resistant Staphylococcus aureus (MRSA), and methicillin-sensitive Staphylococcus aureus (MSSA) were examined. Of the bacteria used in MIC measurement in this test example, clinical bacteria of MRSA (OM481 strain and OM584 strain) were supplied from Okayama University Hospital (Japan). An MRSA strain N315, a vancomycin intermediate-resistant Staphylococcus aureus (VISA) strain Mu50, and a methicillin-sensitive Staphylococcus aureus (MSSA) strain FDA 209P were used as controls. Vancomycin-resistant enterococcus (VRE) strains NCTC 12201 and FN-1 were supplied from the National Institute of Infectious Disease (Japan).
# [2] = system: Vancomycin-resistant enterococci FN-1; experiment: In vitro infectivity assay (MIC), Exp. Ex. 2-1; format: cell-based; conditions: Enterococcus, VRE; Gram-positive; microdilution, MIC after 24 h; read-out: MIC VRE FN-1
# Description: as §1, §2
# [3] = system: Vancomycin-resistant enterococci NCTC 12201; experiment: In vitro infectivity assay (MIC), Exp. Ex. 2-1; format: cell-based; conditions: Enterococcus, NCTC 12201 / VRE; Gram-positive; microdilution, MIC after 24 h; read-out: MIC VRE NCTC 12201
# Description: as §1, §2
# [4] = system: Methicillin sensitive S. aureus 209P; experiment: In vitro infectivity assay (MIC), Exp. Ex. 2-1; format: cell-based, Staphylococcus aureus; conditions: Staphylococcus aureus, 209P / MSSA; Gram-positive; microdilution, MIC after 24 h; read-out: MIC MSSA 209P
# Procedure, shortened: (§3)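 CLSI broth dilution; Mueller-Hinton + 0.85% NaCl; inoculum ~10^5 CUF/[…]; 35° C, 24 h; MIC read, n=3.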
# [5] = system: Methicillin-resistant S. aureus COL; experiment: In vitro infectivity assay (MIC), Exp. Ex. 2-1; format: cell-based, Staphylococcus aureus; conditions: Staphylococcus aureus, MRSA; Gram-positive; microdilution, MIC after 24 h
# [6] = system: Methicillin-resistant S. aureus N315; experiment: In vitro infectivity assay (MIC), Exp. Ex. 2-1; format: cell-based, Staphylococcus aureus; conditions: Staphylococcus aureus, MRSA; Gram-positive; microdilution, MIC after 24 h; read-out: MIC MRSA N315
# Procedure, shortened: as §3
# [7] = system: Methicillin-resistant S. aureus OM481; experiment: In vitro infectivity assay (MIC), Exp. Ex. 2-1; format: cell-based, Staphylococcus aureus; conditions: Staphylococcus aureus, MRSA; Gram-positive; microdilution, MIC after 24 h; read-out: MIC MRSA OM481
# Procedure, shortened: as §3
# [8] = system: Methicillin-resistant S. aureus OM584; experiment: In vitro infectivity assay (MIC), Exp. Ex. 2-1; format: cell-based, Staphylococcus aureus; conditions: Staphylococcus aureus, MRSA; Gram-positive; microdilution, MIC after 24 h; read-out: MIC MRSA OM584
# Procedure, shortened: as §3
# [9] = system: Streptococcus pneumoniae R6; experiment: In vitro infectivity assay (MIC), Exp. Ex. 2-1; format: cell-based; conditions: Streptococcus pneumoniae, R6; Gram-positive; microdilution, MIC after 24 h; read-out: MIC S. Pneumoniae R6
# Escherichia coli K-12 = experiment: Antibacterial activity (MIC) against Gram-negative strains, microdilution; format: cell-based; conditions: K12, MIC after 24 h, read-out: MIC (Gram-nagative) K-12
# Procedure, shortened: (§4)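 CLSI broth microdilution in Mueller-Hinton broth with 0.85% NaCl, inoculum about 10^5 […]. Incubated 35° C for 24 hours; MIC taken as the minimum inhibitory concentration, measured three times.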
# [10] = system: Pseodomonas aeruginosa PAOI; experiment: as above; format: cell-based; conditions: MIC after 24 h, read-out: MIC (Gram-nagative) PAO1
# Procedure, shortened: as §4
# E. coli DNA gyrase = biological target: T1, E. coli DNA gyrase (Escherichia coli, UniProt P0AES4+P0AES6); experiment: DNA gyrase inhibition (supercoiling kit), Exp. Ex. 2-2; format: biochemical
# T1 construct: purchased John Innes Enterprises #K0001
# T1 sequence (P0AES4 whole entry, one chain of several): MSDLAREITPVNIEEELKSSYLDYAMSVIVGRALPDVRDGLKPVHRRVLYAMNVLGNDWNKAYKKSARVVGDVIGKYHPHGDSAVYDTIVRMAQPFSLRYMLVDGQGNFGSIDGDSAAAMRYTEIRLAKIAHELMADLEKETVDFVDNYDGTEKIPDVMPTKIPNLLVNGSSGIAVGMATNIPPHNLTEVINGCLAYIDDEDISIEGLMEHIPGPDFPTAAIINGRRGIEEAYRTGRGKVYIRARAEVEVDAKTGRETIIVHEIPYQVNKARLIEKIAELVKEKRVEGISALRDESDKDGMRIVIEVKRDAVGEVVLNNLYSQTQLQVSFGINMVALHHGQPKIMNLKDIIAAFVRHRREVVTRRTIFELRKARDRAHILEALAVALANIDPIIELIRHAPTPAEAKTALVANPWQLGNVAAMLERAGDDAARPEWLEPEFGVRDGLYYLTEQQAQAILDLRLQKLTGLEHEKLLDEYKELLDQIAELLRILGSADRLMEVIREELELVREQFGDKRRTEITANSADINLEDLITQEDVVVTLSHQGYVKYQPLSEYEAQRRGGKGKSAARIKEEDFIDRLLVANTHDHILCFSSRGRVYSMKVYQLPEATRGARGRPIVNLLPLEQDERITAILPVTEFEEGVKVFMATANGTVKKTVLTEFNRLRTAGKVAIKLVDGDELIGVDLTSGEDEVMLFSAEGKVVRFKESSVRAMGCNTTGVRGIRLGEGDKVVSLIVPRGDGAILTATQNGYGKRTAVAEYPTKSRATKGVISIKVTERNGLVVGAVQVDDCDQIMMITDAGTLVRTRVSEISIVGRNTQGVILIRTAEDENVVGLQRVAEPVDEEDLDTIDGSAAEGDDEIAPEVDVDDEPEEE
# Procedure, shortened: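 IC50 derived from gel electrophoresis separating supercoiled from relaxed DNA. Reactions ran 30 minutes at 37° C with 1 U gyrase, […] relaxed pBR322, 1 mM ATP and 4 mM MgCl2 in Tris-HCl buffer (pH 7.5), then stopped with EDTA-containing solution.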
# [11] = biological target: T2, Escherichia coli Topoisomerase IV (Escherichia coli, UniProt P0AFI2+P20083); experiment: Topoisomerase IV inhibition (decatenation kit), Exp. Ex. 2-3; format: biochemical; conditions: decatenation of kDNA, 37° C., 30 minutes; read-out: IC50 (E. coli topoisomerase IV inhibitions)
# T2 construct: purchased John Innes Enterprises
# T2 sequence (P20083 whole entry): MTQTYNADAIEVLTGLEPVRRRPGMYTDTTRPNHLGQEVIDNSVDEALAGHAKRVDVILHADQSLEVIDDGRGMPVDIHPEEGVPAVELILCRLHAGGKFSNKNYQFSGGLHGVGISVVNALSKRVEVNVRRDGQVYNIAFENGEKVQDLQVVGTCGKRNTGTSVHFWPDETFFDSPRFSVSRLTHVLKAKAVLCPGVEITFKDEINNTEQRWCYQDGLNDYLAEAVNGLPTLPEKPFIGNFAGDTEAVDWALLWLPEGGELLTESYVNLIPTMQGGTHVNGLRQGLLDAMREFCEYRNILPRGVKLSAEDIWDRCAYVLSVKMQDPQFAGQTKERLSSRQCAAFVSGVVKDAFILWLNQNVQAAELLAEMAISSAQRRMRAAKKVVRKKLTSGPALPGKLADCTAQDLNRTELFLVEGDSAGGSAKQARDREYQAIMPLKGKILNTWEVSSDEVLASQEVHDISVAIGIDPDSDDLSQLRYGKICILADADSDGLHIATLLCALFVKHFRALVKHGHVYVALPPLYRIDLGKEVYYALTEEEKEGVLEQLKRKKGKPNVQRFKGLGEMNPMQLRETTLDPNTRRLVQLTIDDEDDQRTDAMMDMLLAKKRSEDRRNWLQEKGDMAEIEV
# T2 sequence (P0AFI2 whole entry): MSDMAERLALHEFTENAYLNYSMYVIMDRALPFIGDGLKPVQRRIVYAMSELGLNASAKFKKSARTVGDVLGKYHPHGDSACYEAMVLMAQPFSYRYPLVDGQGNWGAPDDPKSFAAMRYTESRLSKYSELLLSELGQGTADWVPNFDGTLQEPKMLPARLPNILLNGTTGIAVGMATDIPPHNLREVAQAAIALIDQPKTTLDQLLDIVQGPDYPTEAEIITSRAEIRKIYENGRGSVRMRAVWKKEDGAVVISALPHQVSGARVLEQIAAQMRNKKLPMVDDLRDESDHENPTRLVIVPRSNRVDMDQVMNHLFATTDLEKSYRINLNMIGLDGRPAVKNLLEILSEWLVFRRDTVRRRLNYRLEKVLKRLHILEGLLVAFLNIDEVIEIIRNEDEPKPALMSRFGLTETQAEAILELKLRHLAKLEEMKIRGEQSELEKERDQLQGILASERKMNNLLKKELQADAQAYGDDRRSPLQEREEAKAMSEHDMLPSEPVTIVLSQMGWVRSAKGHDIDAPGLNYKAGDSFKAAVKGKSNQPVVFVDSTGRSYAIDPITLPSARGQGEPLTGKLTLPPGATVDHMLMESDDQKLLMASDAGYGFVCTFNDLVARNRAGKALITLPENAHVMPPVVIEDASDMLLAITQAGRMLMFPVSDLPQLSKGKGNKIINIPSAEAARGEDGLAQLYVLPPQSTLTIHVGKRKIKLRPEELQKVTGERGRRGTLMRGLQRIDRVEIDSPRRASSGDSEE
# Description: (§5) Staphylococcus aureus Topoisomerase IV and Escherichia coli Topoisomerase IV were purchased from John Innes Enterprises. 1 unit of topoisomerase IV was cultured with 200 ng of kinetoplast DNA (kDNA) in 30 L of a reaction solution at 37° C. for 30 minutes under the conditions of 50 mM Tris-HCl (pH 7.5) (S. aureus)/50 mM HEPES-KOH (pH 7.6) (E. coli), 5 mM MgCl2 (S. aureus)/5 mM magnesium acetate (E. coli), 350 mM potassium glutamate (S. aureus)/100 mM potassium glutamate (E. coli), 5 mM dithiotheri (S. aureus)/10 mM dithiotheri (E. coli), 1.5 mM ATP (S. aureus)/1 mM ATP (E. coli), and 40% (w/v) glycerol. The reactions were stopped by adding 8 L of a reaction stop solution (40% sucrose, 100 mM Tris.HCl (pH 7.5), 1 mM EDTA, 0.5 mg/ml bromophenol blue). Agarose gel (1.0%) was poured into TAE (40 mM Tris acetate, 2 mM EDTA).
# [12] = biological target: T3, Staphylococcus aureus Topoisomerase IV (Staphylococcus aureus, UniProt P0C1S7+P0C1U9); experiment: as above; format: biochemical
# T3 construct: purchased John Innes Enterprises
# T3 sequence (P0C1U9 whole entry): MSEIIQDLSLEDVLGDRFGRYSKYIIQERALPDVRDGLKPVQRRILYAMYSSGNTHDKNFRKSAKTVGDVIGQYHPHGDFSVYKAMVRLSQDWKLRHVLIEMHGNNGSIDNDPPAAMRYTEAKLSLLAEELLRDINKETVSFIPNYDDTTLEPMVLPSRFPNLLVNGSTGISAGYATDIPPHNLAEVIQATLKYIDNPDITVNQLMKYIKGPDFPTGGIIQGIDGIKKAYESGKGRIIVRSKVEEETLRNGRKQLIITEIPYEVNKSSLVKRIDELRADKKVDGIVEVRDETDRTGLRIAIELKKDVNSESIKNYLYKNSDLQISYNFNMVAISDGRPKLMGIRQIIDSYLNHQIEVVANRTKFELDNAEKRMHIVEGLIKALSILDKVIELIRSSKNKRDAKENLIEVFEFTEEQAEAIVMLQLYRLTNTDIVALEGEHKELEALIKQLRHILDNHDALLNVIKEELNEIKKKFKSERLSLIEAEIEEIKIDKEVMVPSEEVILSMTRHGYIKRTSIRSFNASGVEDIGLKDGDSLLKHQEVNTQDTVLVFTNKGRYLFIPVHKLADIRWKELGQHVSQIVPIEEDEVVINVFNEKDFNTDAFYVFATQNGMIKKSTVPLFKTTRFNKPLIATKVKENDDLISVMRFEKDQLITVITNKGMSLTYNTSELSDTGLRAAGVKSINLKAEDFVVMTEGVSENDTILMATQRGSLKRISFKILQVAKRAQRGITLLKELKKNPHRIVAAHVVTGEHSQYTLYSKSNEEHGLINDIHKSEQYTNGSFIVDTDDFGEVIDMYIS
# T3 sequence (P0C1S7 whole entry): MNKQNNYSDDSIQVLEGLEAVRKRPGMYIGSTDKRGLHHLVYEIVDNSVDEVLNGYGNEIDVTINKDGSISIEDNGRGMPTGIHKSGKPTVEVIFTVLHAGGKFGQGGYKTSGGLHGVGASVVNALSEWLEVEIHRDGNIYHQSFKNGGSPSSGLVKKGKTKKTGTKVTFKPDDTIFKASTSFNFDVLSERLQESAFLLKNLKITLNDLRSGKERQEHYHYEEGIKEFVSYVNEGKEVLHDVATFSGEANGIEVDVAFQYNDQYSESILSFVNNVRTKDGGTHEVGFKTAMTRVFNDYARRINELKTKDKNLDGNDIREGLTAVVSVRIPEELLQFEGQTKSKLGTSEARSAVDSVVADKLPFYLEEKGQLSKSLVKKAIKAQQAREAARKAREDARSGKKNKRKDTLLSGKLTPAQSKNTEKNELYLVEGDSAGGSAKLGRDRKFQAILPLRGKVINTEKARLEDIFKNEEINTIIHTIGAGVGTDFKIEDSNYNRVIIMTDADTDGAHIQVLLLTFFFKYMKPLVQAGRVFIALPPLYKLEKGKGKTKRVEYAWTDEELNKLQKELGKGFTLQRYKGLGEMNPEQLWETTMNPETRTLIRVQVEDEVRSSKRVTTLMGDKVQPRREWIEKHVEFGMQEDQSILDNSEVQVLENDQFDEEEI
# Description: as §5
Structure (SMILES),MIC [1] [µg/mL],MIC [2] [µg/mL],MIC [3] [µg/mL],MIC [4] [µg/mL],MIC [5] [µg/mL],MIC [6] [µg/mL],MIC [7] [µg/mL],MIC [8] [µg/mL],MIC [9] [µg/mL],MIC (Escherichia coli K-12) [µg/mL],MIC [10] [µg/mL],IC50 (E. coli DNA gyrase) [µM],IC50 [11] [µM],IC50 [12] [µM],melting point [°C]
CCCc1ccc(C(=O)OC[C@H]2O[C@@H](Oc3c(-c4ccc(O)c(O)c4)oc4cc(O)cc(O)c4c3=O)[C@H](OC(=O)c3ccc(CCC)cc3)[C@@H](O)[C@H]2O)cc1 [Compound 14b],4,8,4,2,16,2,4,4,2,> 128,> 128,0.77,8.89,1.93,150 to 151
"Cc1ccc(CC(=O)OC[C@H]2O[C@@H](Oc3c(-c4ccc(O)c(O)c4)oc4cc(O)cc(O)c4c3=O)[C@H](OC(=O)Cc3ccc(C)cc3)[C@@H](O)[C@H]2O)cc1 [Compound 14d, 2-(3′,4′-Dihydroxyphenyl)-5,7-dihydroxy-3-β-D-[2″,6″-di-O-(4-methylphenylacetyl)]galactosyl-4H-chromen-4-one]",4,8,4,4,16,8,2,2,2,> 128,> 128,2.21,8.52,2.69,125 to 127
"O=C(CCc1ccc(O)cc1)OC[C@H]1O[C@@H](Oc2c(-c3ccc(O)c(O)c3)oc3cc(O)cc(O)c3c2=O)[C@H](OC(=O)CCc2ccc(O)cc2)[C@@H](O)[C@H]1O [Compound 14f, 2-(3′,4′-Dihydroxyphenyl)-5,7-dihydroxy-3-β-D-{2″,6″-di-O-[3′″-(4-hydroxyphenylpropanoyl)]}galactosyl-4H-chromen-4-one]",2,4,4,2,4,2,1,1,4,> 128,> 128,2.39,8.86,1.59,149 to 150
